Results as given in patent US9809640B2, “ApoE peptide dimers and uses thereof” (priority 2010, dated 2017).
Like-named read-outs stand apart in the source and are kept apart here. Non-standard residues stand in square brackets, D forms with d. Residues, ends and D or L forms follow the SMILES beside them. No end group written: not given here. Aib = CC(C)(N)C(=O)O

Tests used:
[1] = test system: BV2 microglia cells; experiment: LPS-induced nitric oxide production in BV2 microglia cells; type: cell-based; conditions: 50% suppression of nitric oxide release from BV2 cells following LPS stimulation
Procedure: FIG. 1. COG 112 inhibits LPS-induced production of inflammatory cytokines in BV2 microglia cells. Inhibition curves for COG112 in the production of NO (green squares), TNFα (red diamonds), and IL-6 (blue triangles) by BV2 microglia. Compounds were added to the final concentrations indicated on the graph along with 100 ng/mL of LPS. After 24 hours the media was removed and assayed by two-site ELISA (BioSource) and quantitated relative to a standard curve on the same plate.
FIG. 3. NO Inhibition curve for COG449. BV2 microglia were treated with COG449 at the final concentrations indicated on the graph, along with 100 ng/mL of LPS. After 24 hours the media was removed and assayed by two-site ELISA (BioSource) and quantitated relative to a standard curve on the same plate.
(§1) We also evaluated the various peptides for efficacy in suppressing nitric oxide production induced by LPS stimulation of BV2 microglia cells as a measure of anti-inflammatory activity as well as the maximum dose tolerated in mice (Table I and FIG. 6A). For the LPS assay, EC50 is the concentration of compound that caused a 50% suppression of nitric oxide release from BV2 cells following LPS stimulation. For mouse toxicity, MTD is the maximum dose of the compound that can be given by intravenous injection without causing deaths after 24 hrs. […] Coupling the ApoE domain to a protein transduction domain further enhanced the potency of the dimers.
Low passage BV2 microglial cell cultures are maintained in 10% HI (Heat Inactivated) FBS DMEM media (supplemented with MEM NEAA (Non-Essential Amino Acids), sodium pyruvate and Pen-Strep) and continuously cultured until needed. To determine the IC50 values for NO production, peptides are added to BV2 cultures in 1% HI FBS DMEM media (supplemented with MEM NEAA and sodium pyruvate) at a range of final assay concentrations from 1.0 μM in 2 fold dilutions to 7.8 nM followed immediately by addition of LPS (100 ng/mL final concentration) as previously described (Laskowitz et al. (2001) Exp Neurol, Vol. 167(1): 74-85). After incubating for 18±1 hours, conditioned media is removed for analysis of nitrite (the stable oxidation product of released nitric oxide) by the Griess colorimetric assay (Promega). Remaining cells are assayed for viability in an MTT assay (Promega) and the nitrite assay values are normalized for each concentration using the percent viability of cells in the MTT assay. […] Typically, the absence of LPS exposure to BV2 cells results in levels below the limit of detection in our assays. Similarly, addition of any of the peptides up to 25 μM without LPS results in undetectable NO levels.

[2] = test system: B-CLL cells; experiment: Cytotoxicity on patient-derived B-CLL cells (MTS assay); conditions: for Fold Change: CLL EC50 relative to COG056 (rev133) = 1.0
Description: FIG. 5A: Dose response curves for COG449 cytotoxicity on CLL cells from 4 leukemia patients. Human CLL cells were isolated from blood samples and assayed for COG449 cytotoxicity. […] FIG. 5B: Dose response curves for COG445 on CLL cells from 7 patients or normal B-cells from 5 patients. Human CLL cells and PBMC were isolated and assayed for cytotoxicity of COG445.
Blood from CLL patients was collected and CD5+/CD19+ CLL cells were isolated using the RosetteSep™ Human B-Cell Enrichment Cocktail, according to the manufacturer's instructions, and treated with COG compounds. Compounds were applied to B-CLL cells (2.5×10^5 cells/well in a 96 well plate), after which the cells were treated for 72 hours.
Normal B-cells from volunteers and B-CLL cells from patients are isolated using the RosetteSep™ Human B Cell Enrichment Cocktail according to the manufacturer's instructions. This method depletes whole blood of T cells, monocytes, and NK cells using a proprietary antibody cocktail that cross-links unwanted cells in human whole blood to multiple red blood cells (RBCs) forming immunorosettes. This increases the density of the unwanted (rosetted) cells, such that they pellet along with the free RBCs when centrifuged over a buoyant density medium such as Ficoll-Paque®. This leaves the highly enriched B-cell or B-CLL cells at the interface between Ficoll and the plasma. The antibodies in the cocktail contain […] and anti-CD16 antibodies to remove T cells, monocytes, and NK cells, respectively. The purity of these B-cell and B-CLL preparations is then determined by flow cytometry.
For cytotoxicity assays, 3×10^6 CLL cells/well are cultured in 24 well tissue culture plates in 1.5 mL of Hybridoma SFM™ (Gibco, Long Island, N.Y.) as described by Levesque et al. (2001, 2003). All cultures are incubated at 37° C., 5% CO2 in air.

[3] = Mouse toxicity, maximum tolerated dose by intravenous injection; conditions: in vivo, maximum dose by intravenous injection without deaths after 24 hrs
Description: as §1

[4] = test system: normal B-cells; experiment: Cytotoxicity on normal B-cells from volunteers; type: cell-based, human; conditions: normal B-cells from volunteers
[5] = test system: U87MG glioblastoma cells; type: cell-based; conditions: MTT
Procedure: FIG. 14A: Dose response curve of COG445 on proliferation of U87 (open circles) and MDA-MB-231 (filled circles) cells as measured by MTT reduction. FIG. 14B: Dose response curve of COG445 on proliferation of MDA-MB-231 cells as measured by cell count.
To determine whether ApoE peptide dimers were cytotoxic to other types of cancer, we evaluated the effect of three different ApoE BMOE-linked peptide dimers (COG449, COG492, COG493; see Table I) on the growth characteristics of U87MG glioblastoma cells. Various concentrations of COG449, COG492, COG493 or Sorafenib were used to treat U87MG glioblastoma cells and viable cells were quanititated using MTT. Sorafenib, which has previously been reported to be cytotoxic to glioblastoma cells (Yang et al. (2010) Mol Cancer Ther., Vol. 9(4):953-962), was used as a positive control.
Because COG445 inhibited Akt activation and downstream signaling, we examined the effects of COG445 on cellular proliferation. Adherent MB231 and U87 cells were grown for ˜24 hours in the presence of COG445 and cellular proliferation was measured by MTT reduction. […] Furthermore, COG445 inhibited MB231 cellular proliferation as determined by cell count (FIG. 14B). Approximately 6×10^4 cells were plated in growth media (RPMI+10% FBS) for 24-hours with increasing concentrations of COG445. […] However at concentrations ≧1 μM COG445, there appears to be a loss of cells. This is partially explained by decreased proliferation, although it is possible that the rate of cellular degradation was increased in the presence of COG445.

[6] = read-out: CLL EC50, B-CLL cells from patients, 72 hours, MTS assay

Compound: CC(C)C[C@H](NC(=O)[C@H](CC(C)C)NC(=O)[C@H](CCCNC(=N)N)NC(=O)[C@H](CCCCN)NC(=O)C(C)(C)NC(=O)[C@H](CC(C)C)NC(=O)[C@H](CCCCN)NC(=O)[C@H](CCCNC(=N)N)NC(=O)[C@H](CC(C)C)NC(=O)C(C)(C)NC(=O)[C@H](CO)NC(=O)[C@H](C)NC(=O)[C@H](CS)NC(=O)[C@H](CCCNC(=N)N)NC(=O)[C@H](CCCNC(=N)N)NC(=O)[C@H](CCCNC(=N)N)NC(=O)[C@H](CCC(N)=O)NC(=O)[C@H](CCCNC(=N)N)NC(=O)[C@H](CCCNC(=N)N)NC(=O)[C@H](CCCCN)NC(=O)[C@H](CCCCN)NC(=O)[C@H](CCCNC(=N)N)NC(=O)CNC(=O)[C@@H](N)Cc1ccc(O)cc1)C(=O)O [COG226, YGRKKRRQRRR-C-AS(Aib)LRKL(Aib)KRLL (SEQ ID NO: 6)] (H-YGRKKRRQRRRCAS[Aib]LRKL[Aib]KRLL-OH)
- EC50 [1]: < 1 µM
- Fold Change [2]: 9.2
- EC50 [2, 6]: 1.4 µM

Compound: CC[C@H](C)[C@H](NC(=O)[C@H](CCCCN)NC(=O)[C@@H](NC(=O)[C@H](CCC(N)=O)NC(=O)[C@@H](N)CCCNC(=N)N)[C@@H](C)CC)C(=O)N[C@@H](Cc1c[nH]c2ccccc12)C(=O)N[C@@H](Cc1ccccc1)C(=O)N[C@@H](CCC(N)=O)C(=O)N[C@@H](CC(N)=O)C(=O)N[C@@H](CCCNC(=N)N)C(=O)N[C@@H](CCCNC(=N)N)C(=O)N[C@@H](CCSC)C(=O)N[C@@H](CCCCN)C(=O)N[C@@H](Cc1c[nH]c2ccccc12)C(=O)N[C@@H](CCCCN)C(=O)N[C@@H](CCCCN)C(=O)N[C@@H](CS)C(=O)N[C@@H](C)C(=O)N[C@@H](CO)C(=O)NC(C)(C)C(=O)N[C@@H](CC(C)C)C(=O)N[C@@H](CCCNC(=N)N)C(=O)N[C@@H](CCCCN)C(=O)N[C@@H](CC(C)C)C(=O)NC(C)(C)C(=O)N[C@@H](CCCCN)C(=O)N[C@@H](CCCNC(=N)N)C(=O)N[C@@H](CC(C)C)C(=O)N[C@@H](CC(C)C)C(=O)O [COG120, RQIKIWFQNRRMKWKK-C-AS(Aib)LRKL(Aib)KRLL (SEQ ID NO: 7)] (H-RQIKIWFQNRRMKWKKCAS[Aib]LRKL[Aib]KRLL-OH; N-terminus and C-terminus assumed)
- EC50 [1]: < 1 µM
- Fold Change [2]: 12.6
- EC50 [2, 6]: 1 µM

Compound: CC(=O)N[C@@H](CC(C)C)C(=O)N[C@@H](CCCNC(=N)N)C(=O)N[C@H](C(=O)N[C@@H](CCCNC(=N)N)C(=O)N[C@@H](CC(C)C)C(=O)N[C@@H](C)C(=O)N[C@@H](CO)C(=O)N[C@@H](Cc1c[nH]cn1)C(=O)N[C@@H](CC(C)C)C(=O)N[C@@H](CCCNC(=N)N)C(=O)N[C@@H](CCCCN)C(=O)N[C@@H](CC(C)C)C(=O)N[C@@H](CCCNC(=N)N)C(=O)N[C@@H](CCCCN)C(=O)N[C@@H](CCCNC(=N)N)C(=O)N[C@@H](CC(C)C)C(=O)N[C@@H](CC(C)C)C(N)=O)C(C)C [COG133, LRVRLASHLRKLRKRLL (SEQ ID NO: 3)]
- EC50 ([2]; read-out: ED50 cytotoxic potency (text, Table I), CLL cells): 4.4 ± 1.5 µM
- MTD at 24 h [3]: 16 mg/kg
- EC50 [4]: > 20 µM

Compound: LLRKRLKRLHSALRVRL [COG056, LLRKRLKRLHSALRVRL (SEQ ID NO: 2), reference compound]
- EC50 [1]: > 20 µM
- Fold Change [2]: 1.0
- EC50 [2, 6]: 12.9 µM

Compound: CC(=O)N[C@@H](CSC1CC(=O)N(CCN2C(=O)CC(SC[C@H](NC(C)=O)C(=O)N[C@@H](CC(C)C)C(=O)N[C@@H](CCCNC(=N)N)C(=O)N[C@H](C(=O)N[C@@H](CCCNC(=N)N)C(=O)N[C@@H](CC(C)C)C(=O)N[C@@H](C)C(=O)N[C@@H](CO)C(=O)N[C@@H](Cc3c[nH]cn3)C(=O)N[C@@H](CC(C)C)C(=O)N[C@@H](CCCNC(=N)N)C(=O)N[C@@H](CCCCN)C(=O)N[C@@H](CC(C)C)C(=O)N[C@@H](CCCNC(=N)N)C(=O)N[C@@H](CCCCN)C(=O)N[C@@H](CCCNC(=N)N)C(=O)N[C@@H](CC(C)C)C(=O)N[C@@H](CC(C)C)C(N)=O)C(C)C)C2=O)C1=O)C(=O)N[C@@H](CC(C)C)C(=O)N[C@@H](CCCNC(=N)N)C(=O)N[C@H](C(=O)N[C@@H](CCCNC(=N)N)C(=O)N[C@@H](CC(C)C)C(=O)N[C@@H](C)C(=O)N[C@@H](CO)C(=O)N[C@@H](Cc1c[nH]cn1)C(=O)N[C@@H](CC(C)C)C(=O)N[C@@H](CCCNC(=N)N)C(=O)N[C@@H](CCCCN)C(=O)N[C@@H](CC(C)C)C(=O)N[C@@H](CCCNC(=N)N)C(=O)N[C@@H](CCCCN)C(=O)N[C@@H](CCCNC(=N)N)C(=O)N[C@@H](CC(C)C)C(=O)N[C@@H](CC(C)C)C(N)=O)C(C)C (some centres unmarked) [COG492, C-LRVRLASHLRKLRKRLL (SEQ ID NO: 15) <BMOE> C-LRVRLASHLRKLRKRLL (SEQ ID NO: 15)]
- cytotoxicity to U87MG cells [5]: cytotoxic
- MTD at 24 h [3]: 25 mg/kg
